As a reminder, the IC50 is the concentration that inhibits the measured activity by half.

Here are results for 21 compounds from patent publication US20230081426A1, “COMPOUNDS AND METHODS FOR KRAS MODULATION AND INDICATIONS THEREFOR” (Plexxikon Inc., priority 2020, published 2023).

In test [1] the target is T1, G12D-mutant human KRAS (amino acid residues 1-188) (Homo sapiens, UniProt P01116, G12D).
T1 construct: G12D or G12C-mutant human KRAS (amino acid residues 1-188) with FLAG tag; made in house; host or cells: E. coli
Briefly: KRAS Binding Disruption Assay (AlphaScreen; biotinylated KRpep-2d analogue or RAF1-RBD), G12D. The following applies: KRAS G12D; geometric mean; read-out: KRAS GMean IC50 (uM) MUTATION: G12D. An outline of the steps: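 Mutant KRAS (5-20 nM) incubated 1 h at 25° C with test compound and 5-20 nM biotinylated KRpep-2d analogue or RAF1-RBD in 20 mM HEPES pH 7.5, 100 mM NaCl, 5 mM MgCl2, 0.01% Tween-20, 0.01% BSA.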

Test [2] has as its target T2, G12V-mutant human KRAS (amino acid residues 1-188) (Homo sapiens, UniProt P01116, G12V).
T2 construct: G12V-mutant human KRAS (amino acid residues 1-188) with FLAG tag was purified from E. coli; made in house; host or cells: E. coli
Briefly: KRAS Binding Competition Assay (AlphaScreen; biotinylated KRpep-2d analogue), G12V. To be noted: geometric mean, read-out: KRAS GMean IC50 (uM) MUTATION: G12V. Background: Alpha assays give light when donor and acceptor beads are brought close together.

For the compound `Cc1[nH][nH]c(=O)c1CC(=O)N1[C@@H]2CC[C@H]1CN(c1nc(OCC34CCCN3CCC4)nc3c(F)c(-c4cc(O)cc5ccccc45)ccc13)C2` [P-0388, 4-(2-((1R,5S)-3-(8-fluoro-7-(3-hydroxynaphthalen-1-yl)-2-((tetrahydro-1H-pyrrolizin-7a(5H)-yl)methoxy)quinazolin-4-yl)-3,8-diazabicyclo[3.2.1]octan-8-yl)-2-oxoethyl)-5-methyl-1,2-dihydro-3H-pyrazol-3-one], the IC50 in test [1] and in test [2] was 0.0001 to 10 µM in each case.

With `O=[N+]([O-])c1ccc(COc2nc(N3C[C@H]4CC[C@@H](C3)N4)c3cc(Cl)c(-c4c(O)cccc4F)c(F)c3n2)cc1` [P-0389, 2-(4-((1R,5S)-3,8-diazabicyclo[3.2.1]octan-3-yl)-6-chloro-8-fluoro-2-((4-nitrobenzyl)oxy)quinazolin-7-yl)-3-fluorophenol], the IC50 in test [1] lay in the range of 0.0001 to 10 µM; in test [2], 10 to 100 µM.

Take `CN(C)c1cccc(Oc2nc(N3C[C@H]4CC[C@@H](C3)N4)c3cc(Cl)c(-c4c(O)cccc4F)c(F)c3n2)c1` [P-0390, 2-(4-((1R,5S)-3,8-diazabicyclo[3.2.1]octan-3-yl)-6-chloro-2-(3-(dimethylamino)phenoxy)-8-fluoroquinazolin-7-yl)-3-fluorophenol]: the IC50 in test [1] and in test [2] was 0.0001 to 10 µM throughout.

As for `CN(C)c1ccc(Nc2nc(N3C[C@H]4CC[C@@H](C3)N4)c3cc(Cl)c(-c4c(O)cccc4F)c(F)c3n2)cc1` [P-0391, 2-(4-((1R,5S)-3,8-diazabicyclo[3.2.1]octan-3-yl)-6-chloro-2-((4-(dimethylamino)phenyl)amino)-8-fluoroquinazolin-7-yl)-3-fluorophenol], the IC50 in test [1] and in test [2] was 0.0001 to 10 µM in each case.

Consider `Oc1cccc(F)c1-c1c(Cl)cc2c(N3C[C@H]4CC[C@@H](C3)N4)nc(OCC34CCCN3CCC4)nc2c1F` [P-0392, 2-(4-((1R,5S)-3,8-diazabicyclo[3.2.1]octan-3-yl)-6-chloro-8-fluoro-2-((tetrahydro-1H-pyrrolizin-7a(5H)-yl)methoxy)quinazolin-7-yl)-3-fluorophenol], for which the figures for the IC50 in test [1] and in test [2] were 0.0001 to 10 µM and 10 to 100 µM, respectively.

In the case of `CN1CCC[C@H]1COc1nc(N2C[C@H]3CC[C@@H](C2)N3C(=O)CCCn2ccnc2)c2ccc(-c3cc(O)cc4ccccc34)c(F)c2n1` [P-0393, 1-((1R,5S)-3-(8-fluoro-7-(3-hydroxynaphthalen-1-yl)-2-(((S)-1-methylpyrrolidin-2-yl)methoxy)quinazolin-4-yl)-3,8-diazabicyclo[3.2.1]octan-8-yl)-4-(1H-imidazol-1-yl)butan-1-one], the IC50 in test [1] and in test [2] was 0.0001 to 10 µM in each case.

`C[C@H](O)C(=O)N1[C@@H]2CC[C@H]1CN(c1nc(OC[C@@H]3CCCN3C)nc3c(F)c(-c4cc(O)cc5ccccc45)ccc13)C2` [P-0394, (S)-1-((1R,5S)-3-(8-fluoro-7-(3-hydroxynaphthalen-1-yl)-2-(((S)-1-methylpyrrolidin-2-yl)methoxy)quinazolin-4-yl)-3,8-diazabicyclo[3.2.1]octan-8-yl)-2-hydroxypropan-1-one]: the IC50 in test [1] and in test [2] was 0.0001 to 10 µM each time.

As to `C[C@@H](O)C(=O)N1[C@@H]2CC[C@H]1CN(c1nc(OC[C@@H]3CCCN3C)nc3c(F)c(-c4cc(O)cc5ccccc45)ccc13)C2` [P-0395, (R)-1-((1R,5S)-3-(8-fluoro-7-(3-hydroxynaphthalen-1-yl)-2-(((S)-1-methylpyrrolidin-2-yl)methoxy)quinazolin-4-yl)-3,8-diazabicyclo[3.2.1]octan-8-yl)-2-hydroxypropan-1-one], the IC50 in test [1] and in test [2] was 0.0001 to 10 µM each time.

Turning to `CN1CCC[C@H]1COc1nc(N2C[C@H]3CC[C@@H](C2)N3C(=O)C2CCC(=O)N2)c2ccc(-c3cc(O)cc4ccccc34)c(F)c2n1` (stereo partly drawn) [P-0396, 5-((1R,5S)-3-(8-fluoro-7-(3-hydroxynaphthalen-1-yl)-2-(((S)-1-methylpyrrolidin-2-yl)methoxy)quinazolin-4-yl)-3,8-diazabicyclo[3.2.1]octane-8-carbonyl)pyrrolidin-2-one], the IC50 in test [1] and in test [2] was 0.0001 to 10 µM throughout.

Take `CN1CCC[C@H]1COc1nc(N2C[C@H]3CC[C@@H](C2)N3C(=O)CC(N)=O)c2ccc(-c3cc(O)cc4ccccc34)c(F)c2n1` [P-0398, 3-((1R,5S)-3-(8-fluoro-7-(3-hydroxynaphthalen-1-yl)-2-(((S)-1-methylpyrrolidin-2-yl)methoxy)quinazolin-4-yl)-3,8-diazabicyclo[3.2.1]octan-8-yl)-3-oxopropanamide]: the IC50 in test [1] and in test [2] was 0.0001 to 10 µM in each case.

Turning to `CN1CCC[C@H]1COc1nc(N2C[C@H]3CC[C@@H](C2)N3C(=O)CCC(N)=O)c2ccc(-c3cc(O)cc4ccccc34)c(F)c2n1` [P-0399, 4-((1R,5S)-3-(8-fluoro-7-(3-hydroxynaphthalen-1-yl)-2-(((S)-1-methylpyrrolidin-2-yl)methoxy)quinazolin-4-yl)-3,8-diazabicyclo[3.2.1]octan-8-yl)-4-oxobutanamide], the IC50 in test [1] and in test [2] was 0.0001 to 10 µM each time.

For the compound `CN1CCC[C@H]1COc1nc(N2C[C@H]3CC[C@@H](C2)N3C(=O)C(=O)Nc2ccccn2)c2ccc(-c3cc(O)cc4ccccc34)c(F)c2n1` [P-0400, 2-((1R,5S)-3-(8-fluoro-7-(3-hydroxynaphthalen-1-yl)-2-(((S)-1-methylpyrrolidin-2-yl)methoxy)quinazolin-4-yl)-3,8-diazabicyclo[3.2.1]octan-8-yl)-2-oxo-N-(pyridin-2-yl)acetamide], the IC50 in test [1] and in test [2] was 0.0001 to 10 µM in each case.

As to `CN1CCC[C@H]1COc1nc(N2C[C@H]3CC[C@@H](C2)N3C(=O)Cn2ccnc2)c2ccc(-c3cc(O)cc4ccccc34)c(F)c2n1` [P-0401, 1-((1R,5S)-3-(8-fluoro-7-(3-hydroxynaphthalen-1-yl)-2-(((S)-1-methylpyrrolidin-2-yl)methoxy)quinazolin-4-yl)-3,8-diazabicyclo[3.2.1]octan-8-yl)-2-(1H-imidazol-1-yl)ethan-1-one], the IC50 in test [1] and in test [2] was 0.0001 to 10 µM each time.

As to `CN1CCC[C@H]1COc1nc(N2C[C@H]3CC[C@@H](C2)N3C(=O)Cc2cnn(C)c2)c2ccc(-c3cc(O)cc4ccccc34)c(F)c2n1` [P-0402, 1-((1R,5S)-3-(8-fluoro-7-(3-hydroxynaphthalen-1-yl)-2-(((S)-1-methylpyrrolidin-2-yl)methoxy)quinazolin-4-yl)-3,8-diazabicyclo[3.2.1]octan-8-yl)-2-(1-methyl-1H-pyrazol-4-yl)ethan-1-one], the IC50 in test [1] and in test [2] was 0.0001 to 10 µM throughout.

Consider `CN1CCC[C@H]1COc1nc(N2C[C@H]3CC[C@@H](C2)N3C(=O)[C@H]2CCCN2)c2ccc(-c3cc(O)cc4ccccc34)c(F)c2n1` [P-0403, 4-((1R,5S)-8-(D-prolyl)-3,8-diazabicyclo[3.2.1]octan-3-yl)-8-fluoro-7-(3-hydroxynaphthalen-1-yl)-2-(((S)-1-methylpyrrolidin-2-yl)methoxy)quinazoline], for which the IC50 fell in the range of 0.0001 to 10 µM in test [1] and 10 to 100 µM in test [2].

With `CN1CCC[C@H]1COc1nc(N2C[C@H]3CC[C@@H](C2)N3C(=O)C(O)CO)c2ccc(-c3cc(O)cc4ccccc34)c(F)c2n1` (stereo partly drawn) [P-0404, 1-((1R,5S)-3-(8-fluoro-7-(3-hydroxynaphthalen-1-yl)-2-(((S)-1-methylpyrrolidin-2-yl)methoxy)quinazolin-4-yl)-3,8-diazabicyclo[3.2.1]octan-8-yl)-2,3-dihydroxypropan-1-one], the figures for the IC50 in test [1] and in test [2] were 0.0001 to 10 µM and 10 to 100 µM, respectively.

For `CN1CCC[C@H]1COc1nc(N2C[C@H]3CC[C@@H](C2)N3S(=O)(=O)N[C@@H]2CCNC2)c2ccc(-c3cc(O)cc4ccccc34)c(F)c2n1` [P-0405, (1R,5S)-3-(8-fluoro-7-(3-hydroxynaphthalen-1-yl)-2-(((S)-1-methylpyrrolidin-2-yl)methoxy)quinazolin-4-yl)-N-((R)-pyrrolidin-3-yl)-3,8-diazabicyclo[3.2.1]octane-8-sulfonamide], the IC50 in test [1] is 0.0001 to 10 µM; in test [2], 10 to 100 µM.

Take `Cc1cccc2c1N(c1ccc3c(N4C[C@H]5CC[C@@H](C4)N5)nc(OC[C@@H]4CCCN4C)nc3c1)CC(O)C2` (stereo partly drawn) [P-0406, 1-(4-((1R,5S)-3,8-diazabicyclo[3.2.1]octan-3-yl)-2-(((S)-1-methylpyrrolidin-2-yl)methoxy)quinazolin-7-yl)-8-methyl-1,2,3,4-tetrahydroquinolin-3-ol]: the IC50 in test [1] fell in the range of 10 to 100 µM; in test [2], 100 to 1000 µM.

As for `CN1CCC[C@H]1COc1nc(N2C[C@H]3CC[C@@H](C2)N3C(=O)CS(N)(=O)=O)c2ccc(-c3cc(O)cc4ccccc34)cc2n1` [P-0407, 2-((1R,5S)-3-(7-(3-hydroxynaphthalen-1-yl)-2-(((S)-1-methylpyrrolidin-2-yl)methoxy)quinazolin-4-yl)-3,8-diazabicyclo[3.2.1]octan-8-yl)-2-oxoethane-1-sulfonamide], the IC50 in test [1] and in test [2] was 0.0001 to 10 µM in each case.

Consider `CN(C)S(=O)(=O)CC(=O)N1[C@@H]2CC[C@H]1CN(c1nc(OCC34CCCN3CCC4)nc3c(F)c(-c4cc(O)cc5ccccc45)ccc13)C2` [P-0410, 2-((1R,5S)-3-(8-fluoro-7-(3-hydroxynaphthalen-1-yl)-2-((tetrahydro-1H-pyrrolizin-7a(5H)-yl)methoxy)quinazolin-4-yl)-3,8-diazabicyclo[3.2.1]octan-8-yl)-N,N-dimethyl-2-oxoethane-1-sulfonamide], for which the IC50 in test [1] and in test [2] was 0.0001 to 10 µM in each case.

`CN(C)CCc1nc(N2C[C@H]3CC[C@@H](C2)N3)c2ccc(-c3cc(O)cc4ccccc34)c(F)c2n1` [P-0413]: the results for the IC50 in test [1] and in test [2] were 0.0001 to 10 µM and 10 to 100 µM, respectively.
